Laboratory results: ChEMBL document CHEMBL5614434, “A Lysosome-Targeting hNEU1 Inhibitor Treats Myocardial Infarction: A Potential Therapeutic Breakthrough” (J Med Chem, 2024)
The source made the active and inactive calls. The calls are words filed in the database; no cut-off is given here.

What was measured:
H9c2 [1] = assay: Cytotoxicity against rat H9c2 cells assessed as cell viability at 0.001 to 50 uM under normoxia condition by CCK-8 method; type: toxicity, cell-based; conditions: h9c2, 50 µM, dose 0.001-50 µM
H9c2 [2] = assay: Induction of ATP production in isoproterenol-induced rat H9c2 cells at 0.1 micromol/L by fluorescence based analysis; type: functional; conditions: dose 0.1 µmol/L
H9c2 [3] = assay: Induction of autophagy in isoproterenol-induced rat H9c2 cells assessed as downregulation of PARP1 expression by Western blot analysis; type: functional, cell-based
Mus musculus [4] = assay: Cardioprotective activity against isoproterenol-induced myocardial injury in C57/6J mouse model assessed as decrease in heart weight ratio at 15 mg/kg, ip pretreated with isoproterenol for 3 days followed by compound addition and measured after 3 days (reference value: 0.56 %); type: functional; parameters: scale not given: the % may be the effect or the level left; conditions: time 3 day
[5] = Permeability of compound in MDCK cells; type: ADME, cell-based, Canis lupus familiaris; conditions: dog, read-out: permeability
Mus musculus [6] = assay: Cardioprotective activity against isoproterenol-induced myocardial injury in C57/6J mouse model assessed as effect on cTNI level in serum at 15 mg/kg, ip pretreated with isoproterenol for 3 days followed by compound addition and measured after 3 days by automatic biochemical analysis; type: functional, organism-based; conditions: time 3.0 day
Mus musculus [7] = assay: Cardioprotective activity against isoproterenol-induced myocardial injury in C57/6J mouse model assessed as reduction in CK value in serum at 15 mg/kg, ip pretreated with isoproterenol for 3 days followed by compound addition and measured after 3 days by automatic biochemical analysis; type: functional, organism-based; conditions: time 3.0 day
H9c2 [8] = assay: Induction of autophagy in isoproterenol-induced rat H9c2 cells assessed as increase in LC3-I to LC3-II conversion by confocal microscopy based analysis; type: functional, cell-based
[9] = Passive permeability in MDCK cells; type: ADME, cell-based, Canis lupus familiaris; conditions: dog, read-out: permeability
[10] = Toxicity in isoproterenol-induced male C57/6J mouse model assessed as recovery of growth rate at 15 mg/kg, ip pretreated with isoproterenol for 3 days followed by compound addition and measured after 3 days; type: organism-based; conditions: in vivo, 72 h, time 3 day
H9c2 [11] = assay: Inhibition of ROS production in isoproterenol-induced rat H9c2 cells assessed as reduction in DCF value at 0.1 uM by DCFH-DA staining based flow cytometry analysis (reference value: 371.9); type: functional
Mus musculus [12] = assay: Cardioprotective activity against isoproterenol-induced myocardial injury in C57/6J mouse model assessed as reduction in cardiac swelling size at 15 mg/kg, ip pretreated with isoproterenol for 3 days followed by compound addition and measured after 3 days (reference value: 5.15 millimeter); type: functional; conditions: time 3 day
H9c2 [13] = assay: Induction of apoptosis in isoproterenol-induced rat H9c2 cells assessed as late apoptotic cells at 0.1 micromol/L by annexin V-FITC and PI staining based flow cytometry analysis (reference value: 11.49%); type: toxicity, cell-based; conditions: h9c2, 0.1 µM, dose 0.1 µmol/L
H9c2 [14] = assay: Induction of autophagy in isoproterenol-induced rat H9c2 cells assessed as downregulation of P62 expression by Western blot analysis; type: functional, cell-based
Mus musculus [15] = assay: Cardioprotective activity against isoproterenol-induced myocardial injury in C57/6J mouse model assessed as decrease in CK-MB level in serum at 15 mg/kg, ip pretreated with isoproterenol for 3 days followed by compound addition and measured after 3 days by automatic biochemical analysis; type: functional, organism-based; conditions: time 3.0 day
Mus musculus [16] = assay: Cardioprotective activity against isoproterenol-induced myocardial injury in C57/6J mouse model assessed as suppression of mTORC1 overexpression at 15 mg/kg, ip pretreated with isoproterenol for 3 days followed by compound addition and measured after 3 days by immunohistochemistry analysis; type: functional, organism-based; conditions: time 3.0 day
H9c2 [17] = assay: Induction of apoptosis in isoproterenol-induced rat H9c2 cells assessed as early apoptotic cells at 0.1 micromol/L by annexin V-FITC and PI staining based flow cytometry analysis (reference value: 10.37%); type: toxicity, cell-based; conditions: h9c2, 0.1 µM, dose 0.1 µmol/L
[18] = Drug localization in Mitochondria of rat H9c2 cells by confocal microscopy based analysis; type: ADME
[19] = Drug localization in lysosome of rat H9c2 cells by confocal microscopy based analysis; type: ADME, subcellular

Row | SMILES | Activity (H9c2 [1]) | Activity (H9c2 [2]) [nmol/mg] | Activity (H9c2 [3]) | Activity (Mus musculus [4]) [%] | Papp [5] [×10⁻⁶ cm/s] | Activity (Mus musculus [6]) | Activity (Mus musculus [7]) | Activity (H9c2 [8]) | Papp [9] [×10⁻⁶ cm/s] | Activity [10] | Activity (H9c2 [11]) | Activity (Mus musculus [12]) [mm] | Activity (H9c2 [13]) [%] | Activity (H9c2 [14]) | Activity (Mus musculus [15]) | Activity (Mus musculus [16]) | Activity (H9c2 [17]) [%] | Drug uptake [18] | Drug uptake [19]
1 | CCOC(=O)C1=C[C@@H](OC(CC)CC)[C@H](NC(C)=O)[C@@H](N)C1 [OSELTAMIVIR] | Non-Toxic | 38.3 | Active | 0.5 | 58 | Active | Active | inactive | > 20 | Non-Toxic | 309.1 | 4.65 | 8.91 | Active | Active | Active | 2.78 |  | 
2 | CCC(CC)O[C@@H]1C=C(C(=O)OCCN(C)C)C[C@H](N)[C@H]1NC(C)=O | Non-Toxic |  |  |  |  |  |  |  |  |  |  |  |  |  |  |  |  |  | 
3 | CCC(CC)O[C@@H]1C=C(C(=O)OCCN2CCOCC2)C[C@H](NC(=S)Nc2ccc3c(c2)C(=O)OC32c3ccc(O)cc3Oc3cc(O)ccc32)[C@H]1NC(C)=O |  |  |  |  |  |  |  |  |  |  |  |  |  |  |  |  |  | Active | Active
